How the values were obtained:
Type in all cases: cell-based
Conditions in all cases: compounds at 50 nM and 500 nM
IKZF3 = biological target: T1, IKZF3 (Homo sapiens, UniProt Q96SW2+Q9UKT9); test: Western blot degradation of IKZF3 in hPBMCs (24 h)
T1 construct: The supernatant was aspirated as the extracted total cell protein; endogenous in cells; host or cells: human peripheral blood mononuclear cells (hPBMCs)
Outline: (§1)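 PBMC Western blot, 24 h treatment; test levels 50 nM and 500 nM. Band density ÷ internal control, normalised → % remaining; degradation (%) = 1 − remaining.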

IKZF2 = biological target: T2, IKZF2 (Homo sapiens, UniProt Q96SW2+Q9UKS7); test: Western blot degradation of IKZF2 in hPBMCs (24 h)
T2 construct: The supernatant was aspirated as the extracted total cell protein; endogenous in cells; host or cells: human peripheral blood mononuclear cells (hPBMCs)
Outline: as §1

IKZF1 = biological target: T3, IKZF1 (Homo sapiens, UniProt Q13422+Q96SW2); test: Western blot degradation of IKZF1 in hPBMCs (24 h)
T3 construct: The supernatant was aspirated as the extracted total cell protein; endogenous in cells; host or cells: human peripheral blood mononuclear cells (hPBMCs)
Outline: as §1

GSPT1 = biological target: T4, GSPT1 (Homo sapiens, UniProt P15170+Q96SW2); test: Western blot degradation of GSPT1 in hPBMCs (24 h)
T4 construct: The supernatant was aspirated as the extracted total cell protein; endogenous in cells; host or cells: human peripheral blood mononuclear cells (hPBMCs)
Outline: as §1

CK1α = biological target: T5, CK1α (Homo sapiens, UniProt P48729+Q96SW2); test: Western blot degradation of CK1α in hPBMCs (24 h)
T5 construct: The supernatant was aspirated as the extracted total cell protein; endogenous in cells; host or cells: human peripheral blood mononuclear cells (hPBMCs)
Outline: as §1

WEE1 = biological target: T6, WEE1 (Homo sapiens, UniProt P30291+Q96SW2); test: Western blot degradation of WEE1 in hPBMCs (24 h)
T6 construct: The supernatant was aspirated as the extracted total cell protein; endogenous in cells; host or cells: human peripheral blood mononuclear cells (hPBMCs)
Outline: as §1

T1 sequence (Q9UKT9 whole entry): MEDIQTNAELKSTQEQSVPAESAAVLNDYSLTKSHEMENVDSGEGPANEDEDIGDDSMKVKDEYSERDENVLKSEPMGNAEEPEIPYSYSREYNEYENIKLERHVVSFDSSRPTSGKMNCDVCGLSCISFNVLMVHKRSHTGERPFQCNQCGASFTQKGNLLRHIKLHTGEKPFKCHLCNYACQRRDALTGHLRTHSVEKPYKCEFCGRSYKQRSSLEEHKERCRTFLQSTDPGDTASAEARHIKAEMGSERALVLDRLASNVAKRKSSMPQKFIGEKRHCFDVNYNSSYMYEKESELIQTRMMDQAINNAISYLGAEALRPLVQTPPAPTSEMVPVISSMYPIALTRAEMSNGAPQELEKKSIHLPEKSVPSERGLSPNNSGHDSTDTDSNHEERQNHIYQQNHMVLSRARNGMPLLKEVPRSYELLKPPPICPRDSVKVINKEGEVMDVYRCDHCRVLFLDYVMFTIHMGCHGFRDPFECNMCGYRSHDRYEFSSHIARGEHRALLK
T1 sequence (Q96SW2 whole entry): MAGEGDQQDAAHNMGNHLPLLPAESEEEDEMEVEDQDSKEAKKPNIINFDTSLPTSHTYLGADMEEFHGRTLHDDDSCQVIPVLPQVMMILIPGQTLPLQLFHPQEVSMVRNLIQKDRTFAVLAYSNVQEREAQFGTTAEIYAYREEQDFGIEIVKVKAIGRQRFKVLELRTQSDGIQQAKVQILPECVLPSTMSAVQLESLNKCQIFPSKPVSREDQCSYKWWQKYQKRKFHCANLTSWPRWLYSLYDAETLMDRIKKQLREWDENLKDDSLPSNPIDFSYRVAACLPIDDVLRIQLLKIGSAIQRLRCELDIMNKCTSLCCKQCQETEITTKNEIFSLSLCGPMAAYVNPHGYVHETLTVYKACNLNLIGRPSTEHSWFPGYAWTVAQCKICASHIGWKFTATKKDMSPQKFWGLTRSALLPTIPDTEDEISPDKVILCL
T1 sequence (Q16531 whole entry partner): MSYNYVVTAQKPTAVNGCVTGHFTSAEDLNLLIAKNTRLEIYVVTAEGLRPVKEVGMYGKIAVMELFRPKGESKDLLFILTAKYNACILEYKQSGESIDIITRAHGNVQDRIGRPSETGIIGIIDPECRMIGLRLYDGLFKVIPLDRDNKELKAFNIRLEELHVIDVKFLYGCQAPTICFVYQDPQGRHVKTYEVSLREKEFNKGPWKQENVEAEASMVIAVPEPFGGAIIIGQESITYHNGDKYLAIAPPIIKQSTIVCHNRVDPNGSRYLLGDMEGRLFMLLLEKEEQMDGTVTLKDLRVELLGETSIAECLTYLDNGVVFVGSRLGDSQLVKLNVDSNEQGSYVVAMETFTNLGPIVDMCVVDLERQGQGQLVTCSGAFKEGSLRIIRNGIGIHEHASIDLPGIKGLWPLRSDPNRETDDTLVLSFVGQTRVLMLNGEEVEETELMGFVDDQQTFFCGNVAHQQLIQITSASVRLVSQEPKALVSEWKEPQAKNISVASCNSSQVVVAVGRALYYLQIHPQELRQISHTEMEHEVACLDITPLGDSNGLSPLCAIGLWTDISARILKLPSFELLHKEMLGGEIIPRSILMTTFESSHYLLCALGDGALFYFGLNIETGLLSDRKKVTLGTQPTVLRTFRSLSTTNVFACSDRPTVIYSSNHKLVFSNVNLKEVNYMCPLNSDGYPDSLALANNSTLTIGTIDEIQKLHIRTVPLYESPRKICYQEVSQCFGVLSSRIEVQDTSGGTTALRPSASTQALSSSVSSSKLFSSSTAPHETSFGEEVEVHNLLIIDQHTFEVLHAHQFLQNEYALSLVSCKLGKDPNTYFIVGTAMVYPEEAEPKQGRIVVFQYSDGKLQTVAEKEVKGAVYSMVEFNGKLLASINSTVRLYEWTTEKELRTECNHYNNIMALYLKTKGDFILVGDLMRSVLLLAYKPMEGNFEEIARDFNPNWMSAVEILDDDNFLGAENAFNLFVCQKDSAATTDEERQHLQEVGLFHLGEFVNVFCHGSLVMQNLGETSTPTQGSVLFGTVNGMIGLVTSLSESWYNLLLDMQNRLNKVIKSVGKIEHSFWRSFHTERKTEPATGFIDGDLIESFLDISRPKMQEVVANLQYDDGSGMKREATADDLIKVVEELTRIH
T4 sequence (P15170 whole entry): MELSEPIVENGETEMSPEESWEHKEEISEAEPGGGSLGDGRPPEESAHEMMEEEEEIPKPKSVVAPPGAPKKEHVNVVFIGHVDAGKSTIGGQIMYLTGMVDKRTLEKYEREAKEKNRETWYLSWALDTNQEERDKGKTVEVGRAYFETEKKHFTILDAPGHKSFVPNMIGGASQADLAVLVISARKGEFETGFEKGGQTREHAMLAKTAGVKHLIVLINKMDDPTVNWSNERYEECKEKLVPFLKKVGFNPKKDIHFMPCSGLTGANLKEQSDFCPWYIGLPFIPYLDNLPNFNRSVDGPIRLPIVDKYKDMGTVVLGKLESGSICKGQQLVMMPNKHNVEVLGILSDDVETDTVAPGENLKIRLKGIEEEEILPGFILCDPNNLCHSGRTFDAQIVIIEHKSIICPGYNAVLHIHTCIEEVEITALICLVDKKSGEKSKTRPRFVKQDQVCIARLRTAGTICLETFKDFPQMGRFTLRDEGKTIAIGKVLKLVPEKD
T4 sequence (Q96SW2 whole entry): as the sequence (Q96SW2 whole entry) above
T4 sequence (Q16531 whole entry partner): as the sequence (Q16531 whole entry partner) above
T3 sequence (Q13422 whole entry): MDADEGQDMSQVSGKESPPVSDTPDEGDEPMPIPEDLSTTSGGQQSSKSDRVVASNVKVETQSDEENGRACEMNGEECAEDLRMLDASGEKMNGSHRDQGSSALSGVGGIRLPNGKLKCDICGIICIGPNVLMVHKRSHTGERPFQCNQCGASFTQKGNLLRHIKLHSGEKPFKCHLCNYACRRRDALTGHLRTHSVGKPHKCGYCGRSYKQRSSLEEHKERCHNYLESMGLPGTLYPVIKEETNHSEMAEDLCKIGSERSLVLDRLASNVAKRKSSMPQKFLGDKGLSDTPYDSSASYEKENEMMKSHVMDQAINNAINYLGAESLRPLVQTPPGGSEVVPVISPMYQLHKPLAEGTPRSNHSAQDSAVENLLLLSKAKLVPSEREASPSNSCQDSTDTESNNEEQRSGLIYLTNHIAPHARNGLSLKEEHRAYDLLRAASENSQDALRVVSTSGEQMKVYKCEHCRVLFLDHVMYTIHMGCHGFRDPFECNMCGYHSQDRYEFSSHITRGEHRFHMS
T3 sequence (Q96SW2 whole entry): as the sequence (Q96SW2 whole entry) above
T3 sequence (Q16531 whole entry partner): as the sequence (Q16531 whole entry partner) above
T6 sequence (P30291 whole entry): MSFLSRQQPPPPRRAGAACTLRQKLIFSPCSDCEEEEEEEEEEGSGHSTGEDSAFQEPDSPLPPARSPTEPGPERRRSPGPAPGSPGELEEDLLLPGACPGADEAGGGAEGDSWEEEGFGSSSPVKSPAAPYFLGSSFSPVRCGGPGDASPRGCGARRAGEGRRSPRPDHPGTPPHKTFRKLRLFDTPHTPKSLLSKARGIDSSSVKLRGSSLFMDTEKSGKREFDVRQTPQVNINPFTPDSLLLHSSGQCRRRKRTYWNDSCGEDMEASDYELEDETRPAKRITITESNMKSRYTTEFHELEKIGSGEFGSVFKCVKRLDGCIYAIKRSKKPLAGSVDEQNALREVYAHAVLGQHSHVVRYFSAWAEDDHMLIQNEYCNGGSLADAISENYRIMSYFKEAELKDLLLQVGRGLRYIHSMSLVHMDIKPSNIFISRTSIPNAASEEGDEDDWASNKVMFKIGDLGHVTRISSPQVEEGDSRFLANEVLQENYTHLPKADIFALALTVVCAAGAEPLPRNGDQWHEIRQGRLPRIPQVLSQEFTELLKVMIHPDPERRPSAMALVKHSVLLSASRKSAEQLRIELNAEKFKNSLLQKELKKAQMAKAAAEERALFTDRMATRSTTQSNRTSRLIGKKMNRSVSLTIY
T6 sequence (Q96SW2 whole entry): as the sequence (Q96SW2 whole entry) above
T6 sequence (Q16531 whole entry partner): as the sequence (Q16531 whole entry partner) above
T2 sequence (Q9UKS7 whole entry): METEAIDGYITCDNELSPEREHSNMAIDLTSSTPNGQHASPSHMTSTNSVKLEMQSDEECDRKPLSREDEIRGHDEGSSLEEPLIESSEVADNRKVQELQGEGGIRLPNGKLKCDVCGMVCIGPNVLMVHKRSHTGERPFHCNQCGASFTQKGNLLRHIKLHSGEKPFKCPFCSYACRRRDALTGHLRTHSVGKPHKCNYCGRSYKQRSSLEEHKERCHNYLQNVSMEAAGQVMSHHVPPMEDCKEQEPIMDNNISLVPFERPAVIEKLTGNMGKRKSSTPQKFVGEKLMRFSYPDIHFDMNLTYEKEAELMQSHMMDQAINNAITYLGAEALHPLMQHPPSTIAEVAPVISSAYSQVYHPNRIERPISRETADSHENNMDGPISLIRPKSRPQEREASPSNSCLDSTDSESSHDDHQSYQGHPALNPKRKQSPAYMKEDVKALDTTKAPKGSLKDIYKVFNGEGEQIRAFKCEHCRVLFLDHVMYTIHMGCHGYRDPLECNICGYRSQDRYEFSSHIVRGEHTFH
T2 sequence (Q96SW2 whole entry): as the sequence (Q96SW2 whole entry) above
T2 sequence (Q16531 whole entry partner): as the sequence (Q16531 whole entry partner) above

| Compound | IKZF3 substrate protein remaining % (IKZF3) | IKZF2 substrate protein remaining % (IKZF2) | IKZF1 substrate protein remaining % (IKZF1) | GSPT1 substrate protein remaining % (GSPT1) | CK1α substrate protein remaining % (CK1α) | WEE1 substrate protein remaining % (WEE1) |
| --- | --- | --- | --- | --- | --- | --- |
| CC(C)c1cc2c(N3CCN(Cc4ccc5c(c4)CN(N4CCC(=O)NC4=O)C5=O)CC3)ncnc2s1 [GT-08060, 1-(5-((4-(6-isopropylthieno[2,3-d]pyrimidin-4-yl)piperazin-1-yl)methyl)-1-oxoisoindolin-2-yl)dihydropyrimidine-2,4(1H,3H)-dione] | A (0% ≤ substrate protein remaining % ≤80%) | A (0% ≤ substrate protein remaining % ≤80%) | B (80%< substrate protein remaining % ≤100%) | B (80%< substrate protein remaining % ≤100%) | B (80%< substrate protein remaining % ≤100%) | B (80%< substrate protein remaining % ≤100%) |
| Cc1sc2ncnc(N3CCN(Cc4ccc5c(c4)CN(N4CCC(=O)NC4=O)C5=O)CC3)c2c1C [GT-08061, 1-(5-((4-(5,6-dimethylthieno[2,3-d]pyrimidin-4-yl)piperazin-1-yl)methyl)-1-oxoisoindolin-2-yl)dihydropyrimidine-2,4(1H,3H)-dione] | A (0% ≤ substrate protein remaining % ≤80%) | A (0% ≤ substrate protein remaining % ≤80%) | B (80%< substrate protein remaining % ≤100%) | B (80%< substrate protein remaining % ≤100%) | B (80%< substrate protein remaining % ≤100%) | B (80%< substrate protein remaining % ≤100%) |
| Cc1sc2ncnc(N3CCCN(Cc4ccc5c(c4)CN(N4CCC(=O)NC4=O)C5=O)CC3)c2c1C [GT-08062, 1-(5-((4-(5,6-dimethylthieno[2,3-d]pyrimidin-4-yl)-1,4-diazepan-1-yl)methyl)-1-oxoisoindolin-2-yl)dihydropyrimidine-2,4(1H,3H)-dione] | A (0% ≤ substrate protein remaining % ≤80%) | A (0% ≤ substrate protein remaining % ≤80%) | B (80%< substrate protein remaining % ≤100%) | B (80%< substrate protein remaining % ≤100%) | B (80%< substrate protein remaining % ≤100%) | B (80%< substrate protein remaining % ≤100%) |
| O=C1CCN(N2Cc3cc(CN4CCN(c5ncnc6sc(Br)cc56)CC4)ccc3C2=O)C(=O)N1 [GT-08063, 1-(5-((4-(6-bromothieno[2,3-d]pyrimidin-4-yl)piperazin-1-yl)methyl)-1-oxoisoindolin-2-yl)dihydropyrimidine-2,4(1H,3H)-dione] | A (0% ≤ substrate protein remaining % ≤80%) | A (0% ≤ substrate protein remaining % ≤80%) | B (80%< substrate protein remaining % ≤100%) | B (80%< substrate protein remaining % ≤100%) | B (80%< substrate protein remaining % ≤100%) | B (80%< substrate protein remaining % ≤100%) |
| O=C1CCN(N2Cc3cc(CN4CCN(c5ncnc6sc(-c7ccccc7)cc56)CC4)ccc3C2=O)C(=O)N1 [GT-08064, 1-(1-oxo-5-((4-(6-phenylthieno[2,3-d]pyrimidin-4-yl)piperazin-1-yl)methyl)isoindolin-2-yl)dihydropyrimidine-2,4(1H,3H)-dione] | B (80%< substrate protein remaining % ≤100%) | A (0% ≤ substrate protein remaining % ≤80%) | B (80%< substrate protein remaining % ≤100%) | B (80%< substrate protein remaining % ≤100%) | B (80%< substrate protein remaining % ≤100%) | B (80%< substrate protein remaining % ≤100%) |
| O=C1CCN(N2Cc3cc(CN4CCN(c5ncnc6scc(-c7ccccc7)c56)CC4)ccc3C2=O)C(=O)N1 [GT-08065, 1-(1-oxo-5-((4-(5-phenylthieno[2,3-d]pyrimidin-4-yl)piperazin-1-yl)methyl)isoindolin-2-yl)dihydropyrimidine-2,4(1H,3H)-dione] | B (80%< substrate protein remaining % ≤100%) | A (0% ≤ substrate protein remaining % ≤80%) | B (80%< substrate protein remaining % ≤100%) | B (80%< substrate protein remaining % ≤100%) | B (80%< substrate protein remaining % ≤100%) | B (80%< substrate protein remaining % ≤100%) |
| Cc1nc(N2CCN(Cc3ccc4c(c3)CN(N3CCC(=O)NC3=O)C4=O)CC2)c2c(-c3ccccc3)csc2n1 [GT-08066, 1-(5-((4-(2-methyl-5-phenylthieno[2,3-d]pyrimidin-4-yl)piperazin-1-yl)methyl)-1-oxoisoindolin-2-yl)dihydropyrimidine-2,4(1H,3H)-dione] | B (80%< substrate protein remaining % ≤100%) | A (0% ≤ substrate protein remaining % ≤80%) | B (80%< substrate protein remaining % ≤100%) | B (80%< substrate protein remaining % ≤100%) | A (0% ≤ substrate protein remaining % ≤80%) | B (80%< substrate protein remaining % ≤100%) |
| Cc1nc(N2CCN(Cc3ccc4c(c3)CN(N3CCC(=O)NC3=O)C4=O)CC2)c2ccsc2n1 [GT-08067, 1-(5-((4-(2-methylthieno[2,3-d]pyrimidin-4-yl)piperazin-1-yl)methyl)-1-oxoisoindolin-2-yl)dihydropyrimidine-2,4(1H,3H)-dione] | B (80%< substrate protein remaining % ≤100%) | A (0% ≤ substrate protein remaining % ≤80%) | B (80%< substrate protein remaining % ≤100%) | B (80%< substrate protein remaining % ≤100%) | B (80%< substrate protein remaining % ≤100%) | B (80%< substrate protein remaining % ≤100%) |
| Cc1nc(N2CCN(Cc3ccc4c(c3)CN(N3CCC(=O)NC3=O)C4=O)CC2)c2c3c(sc2n1)CCCC3 [GT-08068, 1-(5-((4-(2-methyl-5,6,7,8-tetrahydrobenzo[4,5]thieno[2,3-d]pyrimidin-4-yl)piperazin-1-yl)methyl)-1-oxoisoindolin-2-yl)dihydropyrimidine-2,4(1H,3H)-dione] | B (80%< substrate protein remaining % ≤100%) | A (0% ≤ substrate protein remaining % ≤80%) | B (80%< substrate protein remaining % ≤100%) | B (80%< substrate protein remaining % ≤100%) | A (0% ≤ substrate protein remaining % ≤80%) | B (80%< substrate protein remaining % ≤100%) |
| O=C1CCN(N2Cc3cc(CN4CCN(c5ncnc6sc7c(c56)CCCC7)CC4)ccc3C2=O)C(=O)N1 [GT-08077, 1-(1-oxo-5-((4-(5,6,7,8-tetrahydrobenzo[4,5]thieno[2,3-d]pyrimidin-4-yl)piperazin-1-yl)methyl)isoindolin-2-yl)dihydropyrimidine-2,4(1H,3H)-dione] | B (80%< substrate protein remaining % ≤100%) | B (80%< substrate protein remaining % ≤100%) | B (80%< substrate protein remaining % ≤100%) | A (0% ≤ substrate protein remaining % ≤80%) | A (0% ≤ substrate protein remaining % ≤80%) | B (80%< substrate protein remaining % ≤100%) |
| O=C1CCN(N2Cc3cc(CN4CCN(c5ncnc6sc7c(c56)CCC7)CC4)ccc3C2=O)C(=O)N1 [GT-08079, 1-(5-((4-(6,7-dihydro-5H-cyclopenta[4,5]thieno[2,3-d]pyrimidin-4-yl)piperazin-1-yl)methyl)-1-oxoisoindolin-2-yl)dihydropyrimidine-2,4(1H,3H)-dione] | B (80%< substrate protein remaining % ≤100%) | B (80%< substrate protein remaining % ≤100%) | B (80%< substrate protein remaining % ≤100%) | A (0% ≤ substrate protein remaining % ≤80%) | A (0% ≤ substrate protein remaining % ≤80%) | A (0% ≤ substrate protein remaining % ≤80%) |
| Cc1nc(N2CCN(Cc3ccc4c(c3)CN(N3CCC(=O)NC3=O)C4=O)CC2)c2c3c(sc2n1)CCC3 [GT-08080, 1-(5-((4-(2-methyl-6,7-dihydro-5H-cyclopenta[4,5]thieno[2,3-d]pyrimidin-4-yl)piperazin-1-yl)methyl)-1-oxoisoindolin-2-yl)dihydropyrimidine-2,4(1H,3H)-dione] | B (80%< substrate protein remaining % ≤100%) | B (80%< substrate protein remaining % ≤100%) | B (80%< substrate protein remaining % ≤100%) | A (0% ≤ substrate protein remaining % ≤80%) | A (0% ≤ substrate protein remaining % ≤80%) | A (0% ≤ substrate protein remaining % ≤80%) |

Source: patent US20260356819A1, “OXOISOINDOLINYL-SUBSTITUTED […] DERIVATIVE AND USE THEREOF” (GLUETACS THERAPEUTICS (SHANGHAI) CO., LTD., priority 2023, published 2026)
